Experimental findings from patent US20120046273A1, “COMPOUNDS AND COMPOSITIONS FOR COGNITION-ENHANCEMENT, METHODS OF MAKING, AND METHODS OF TREATING” (MITHRIDION, INC., priority 2009, published 2012) are described below.

Structures are written as SMILES. Structures can show the parent of a compound that is named as a salt.

The conditions of data set [1]: rat, in vivo, po.
A further data set concerns the target T1, rat M1 receptors (Rattus norvegicus, UniProt P08482).
T1 construct: host or cells: Chinese Hamster Ovary cells (M1-CHO)
T1 sequence (P08482 1-460): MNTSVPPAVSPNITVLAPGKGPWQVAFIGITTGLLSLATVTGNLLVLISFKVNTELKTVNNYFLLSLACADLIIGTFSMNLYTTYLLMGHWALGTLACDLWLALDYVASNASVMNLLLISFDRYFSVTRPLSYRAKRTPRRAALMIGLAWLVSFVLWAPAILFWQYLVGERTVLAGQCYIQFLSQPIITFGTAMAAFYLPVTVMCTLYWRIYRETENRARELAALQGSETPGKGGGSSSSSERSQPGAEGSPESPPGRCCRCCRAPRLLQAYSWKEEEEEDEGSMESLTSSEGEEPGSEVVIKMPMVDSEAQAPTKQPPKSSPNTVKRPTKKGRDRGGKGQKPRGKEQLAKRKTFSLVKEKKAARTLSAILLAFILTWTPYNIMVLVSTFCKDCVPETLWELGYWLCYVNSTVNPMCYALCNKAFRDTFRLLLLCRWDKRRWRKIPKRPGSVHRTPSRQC
The experiment in a line: PI turnover (inositol phosphate production) in M1-CHO cells. Format: cell-based. The following applies: for functional selectivity for M1- versus M3-subtype by PI turnover: cell lines expressing individual subtypes of muscarinic receptors; for M1/CHO PI turnover Relative Mean Smax: relative to mean Smax for carbachol (100.0). Here is the method: (§1) The medium was changed to 70 μL/well of inositol-free DMEM containing 2 mM glutamine, 10% FBS and 10 μCi/ml of [3H]-inositol (PE:cat # NET114A250UC), incubated overnight as above, then 100 μL of a solution of the test compound in HBSS containing 10 mM LiCl and 20 mM HEPES, pH 7.4 was added, incubation was continued for 60 min under the above conditions, and the test was stopped by removing the test compound and replacing with 100 μL of 50 mM formic acid in water at 4° C.

The next data set addresses T2, rat M3 receptors (Rattus norvegicus, UniProt P08483).
T2 construct: host or cells: Chinese Hamster Ovary cells (M3-CHO)
Description: PI turnover (inositol phosphate production) in M3-CHO cells. Format: cell-based. Particulars: relative to mean Smax for carbachol (100.0). Here is the method: as §1

The nature of data set [2]: Brain concentrations in rats after oral gavage. In kind it is in vivo, rat. The following applies: for Brain Cmax (10 mg/kg po) MCD-386 = 1.00: rat, relative to MCD-386; for penetration into the brain: rats after oral dosing. Here is the method: Long-Evans Hooded rats (Charles River: male, 250-350 g) were dosed with solutions of test compounds in PBS by oral gavage. At the desired time after dosing, the animals were anesthetized with isoflurane, and then euthanized by cervical dislocation. Blood was obtained by cardiac puncture, transferred to a 1.5 mL microcentrifuge tube containing 15U Heparin, and the plasma recovered after centrifugation. Brains were dissected, weighed, immediately chilled to 4° C., and homogenized using a PowerGen 125 homogenizer in five volumes of ice-cold 2% formic acid. Proteins were precipitated from plasma and brain homogenate with two and five volumes respectively of ice-cold 2% formic acid and clarified by centrifugation. The supernatant was ultra-filtered by centrifugation through a 3K MWCO spin column (Pall Life Sciences), following the manufacturer's instructions. The concentration of compound in the ultra-filtrate was subjected to reverse-phase liquid chromatography using a 150×2.1 mm Agilent C8 reverse-phase column on a Shimadzu Prominence LC, eluting the compounds with a gradient of 2% to 50% of acetonitrile+0.1% formic acid for compound MI-50,382, or an isocratic flow of 2% acetonitrile+0.1% formic acid for the rest of the compounds listed. The concentration of the compound in the column effluent was measured using an Applied Biosystems API-3200 triple quadrupole mass spectrometer equipped with an electrospray sample injection system. The counts of the characteristic parent and product ions of each test compound were converted to concentration units by comparison with a standard calibration curve.

Data set [3] can be described thus: Metabolites in serum and urine of dosed rats (LC-MS). Format: in vivo. Particulars: rat serum/plasma or urine, oral dosing; hydrochloride. Here is the method: Oxadiazoles disclosed herein as well as other oxadiazoles were investigated to determine the formation of metabolites. Animals were dosed, blood taken, serum prepared, serum proteins precipitated and ultrafiltrates prepared as described in Example 6. In separate experiments, urine was collected from rats for 16-24 hours after dosing, using standard metabolic cages. The urine container and collected urine were maintained at 4° C. Urine was lyophilized, taken back into water. The ultrafiltrate was prepared by adding formic acid to a final concentration of 1% to the urine samples, then filtered through a 0.2 um nylon membrane. The ultrafiltrate was subjected to LC-MS analysis. Instead of measuring the product ions in Q3, manual Q1 scans of the liquid chromatograph were undertaken, seeking parent ions of potential metabolites of the compounds. The criteria for identifying metabolites were as follows: (1) the ion should be present in the sera or urines of dosed rats, but not in sera or urines from non-dosed rats (2) the ion should be identifiable as a metabolic derivative of the dosed compound (e.g. loss of a functional chemical moiety, addition of a hydroxyl group or a glucuronic acid moiety, etc). Metabolites were determined not to be present if no compound meeting the above criteria could be detected in serum or urine.

For data set [4], the system named is salivary gland inositol phosphate signaling pathway. Description: In vivo tissue inositol phosphate signaling pathway activation, salivary gland. Particulars: 1 mg/kg of 82. The arrangement: species or system rat. Here is the method: (§2) Experimental compounds or drug substances were administered using standard techniques to Long Evans Hooded rats weighing 225 to 350 grams, and which had been pretreated with a subcutaneous injection of lithium chloride at a suitable dose between 3 and 10 mmoles per kg. At suitable times the animals were briefly anesthetized using 5% isoflurane and euthanized by decapitation. The brains and submaxillary salivary glands were rapidly dissected out, and the hippocampuses were dissected from the brains. The dissected tissues were homogenized in a suitable volume of ice-cold phosphate-buffered saline containing 10 mM lithium chloride, pH7.4, using a tissue homogenizer, and used immediately or frozen in aliquots at −80degC. for future use. The concentration of inositol-1-phosphate was determined in the homogenates using the IPOne TR-FRET assay (CisBio cat no 621PAPEB), following the manufacturer's instruction

Data set [5] relates to hippocampal inositol phosphate signaling pathway. The experiment in a line: In vivo tissue inositol phosphate signaling pathway activation, hippocampus. Particulars: 1 mg/kg of 82; NMS 0.1 mg/kg. Set-up: species or system rat. Here is the method:
as §2

For another data set, the system named is anesthetized normal rats. Description: In vivo measurement of salivation. Set-up: species or system rat. Here is the method: Suitable doses of test compounds or drug substances were administered using standard techniques to Long Evans Hooded rats weighing 225 to 350 grams, or CD-1 mice weighing 30 to 50 grams, which had been anesthetized using 2-3.5%% of isoflurane in oxygen. The animals were placed slightly head-down on an inclined, heated ramp. Rectal temperature was monitored using a thermocouple and the temperature of the heating pad was adjusted manually to maintain normal body temperature. Saliva was collected from the mouth by absorption onto pre-weighed slips of filter paper. The filter paper was changed periodically and the amount of saliva was measured by weighing the filter paper slips

A further data set concerns anesthetized rats. Description: Salivation on iontophoretic transdermal delivery of agonist and antagonist from one patch. Format: in vivo, rat. Particulars: patch with 1 mg of 82 plus 0.01mg antagonist. Here is the method:
Experimental compounds and drug substances were delivered transdermally in rats using iontophoresis as follows. The fur was shaved from the backs of Long Evans Hooded rats weighing 225 to 325 grams, using electric clippers. Experimental compounds and drug substances were formulated at suitable concentrations an aqueous mixture of the following composition:
The polyvinyl alcohol/water was heated to 95 degC. until it became clear, then the other constituents were added and mixed well. The mixture was introduced into suitable molds containing a disc-shaped cavity 2.2 cm diameter and 2.2 mm deep. Molds may be fabricated using two glass sheets separated by a silicone rubber sheet with suitable sized cavities and filling ports cut-outs. The molds were subject to 3 freeze-thaw cycles at −80degC. and 20degC. until a firm cryogel was obtained. The gels were separated from the molds and trimmed into a circular shape. The gel was placed in a silicone rubber casing with one face in contact with a circular silver foil anodic electrode (22 mm dia/250 microns thick), and the assembly was placed on the shaved skin of the rat such that the other face was in contact with the skin on one side of the back of the rat. The rubber casing formed a seal over and around the gel/electrode assembly. […] This was placed on the other side of the shaved back of the rat, the edges of the gel discs being about 20 mm apart at their nearest point. A DC voltage was applied across the two patches from a constant-current DC power supply and the voltage adjusted to obtain the desired current, such that the skin of the animal completed the electrical circuit.
The devices were placed on shaved backs of anesthetized rats and salivation was measured.
The animals were placed slightly head-down on an inclined, heated ramp. Rectal temperature was monitored using a thermocouple and the temperature of the heating pad was adjusted manually to maintain normal body temperature. Saliva was collected from the mouth by absorption onto pre-weighed slips of filter paper. The filter paper was changed periodically and the amount of saliva was measured by weighing the filter paper slips

The test system of a further data set is rats. Description: Salivary flow in rats dosed orally. In kind it is in vivo, rat.

T2 sequence (P08483 whole entry): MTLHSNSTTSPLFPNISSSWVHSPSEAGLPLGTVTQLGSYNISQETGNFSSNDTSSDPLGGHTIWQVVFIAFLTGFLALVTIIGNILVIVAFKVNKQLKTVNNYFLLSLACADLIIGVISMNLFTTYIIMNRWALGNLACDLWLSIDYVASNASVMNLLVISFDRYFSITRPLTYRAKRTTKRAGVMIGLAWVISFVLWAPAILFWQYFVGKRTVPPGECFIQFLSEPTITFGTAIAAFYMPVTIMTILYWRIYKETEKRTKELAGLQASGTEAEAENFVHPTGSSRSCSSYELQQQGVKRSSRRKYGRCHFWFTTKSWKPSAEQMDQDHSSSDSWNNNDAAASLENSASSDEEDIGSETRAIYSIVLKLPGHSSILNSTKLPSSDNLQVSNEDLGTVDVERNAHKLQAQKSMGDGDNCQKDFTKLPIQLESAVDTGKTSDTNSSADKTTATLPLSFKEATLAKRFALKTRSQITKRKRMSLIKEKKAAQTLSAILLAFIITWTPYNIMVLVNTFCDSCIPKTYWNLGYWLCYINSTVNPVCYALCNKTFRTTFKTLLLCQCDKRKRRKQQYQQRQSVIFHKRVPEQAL

As for `CNC(=C[N+](=O)[O-])NCCSCc1ccc(CN(C)C)o1` [Ranitidine, reference compound], the “PAMPA (? × 106)” value is on record as 0.26 ? × 106. Also, the Brain/plasma ratio entry in [1] is “Very low”.

As to `[2H]C([2H])(C)c1noc(C2CN=CNC2)n1` (stereo not drawn) [Compound 66, 3-(2,2-d2-Ethyl)-5-(1,4,5,6-tetrahydropyrimidin-5-yl)-1,2,4-oxadiazole hydrochloride], at rat M1 receptors, the “functional selectivity for M1- versus M3-subtype by PI turnover” value (“functional selectivity” for short) is recorded as “M1-subtype functionally selective muscarinic agonists” and the “M1/CHO PI turnover Relative Mean Smax” value is listed as 84.0. Further, the “M3/CHO PI turnover Relative Mean Smax” value at rat M3 receptors is 15.1. For the same compound, in data set [2], the “Brain Cmax (10 mg/kg po) MCD-386 = 1.00” value worked out at 0.82 and the “penetration into the brain” value is “penetrated into the brain”. Besides, the “Presence of metabolites (10 mg/kg po)” value in [3] is “No metabolites were identified and No”.

Consider `C[N+]1(C)[C@@H]2C[C@@H](OC(=O)[C@H](CO)c3ccccc3)C[C@H]1[C@@H]1O[C@@H]12` [NMS, N-methylscopolamine], for which the “block of increase in salivary gland inositol phosphate caused by 82” value in data set [4] (NMS 0.003 mg/kg) is recorded as “some breakthrough activation”; in data set [4] (NMS 0.03 mg/kg to 0.01 mg/kg), “nearly as effective as 0.1 mg/kg”; in data set [4] (antagonist 0.1 mg/kg NMS), “completely block”. The “inhibition of increase in inositol phosphate in the hippocampus caused by 82” value in data set [5] is “does not inhibit”. For the same compound, the “decrease in salivation caused by 82” value with anesthetized normal rats (0.3 mg/kg of 82) is “dose-dependent decrease in salivation”. In addition, the “reduction in salivation caused by MCD-386” value in the data set on anesthetized normal rats (1 mg/kg dose of MCD-386) is “dose-dependent reduction”. Besides, the “reduction of salivation caused by transdermal iontophoretic delivery of 82” value with anesthetized rats was “greatly reduced”.

`Cl.[2H]C([2H])([2H])c1noc(C2CN=CNC2)n1` (stereo not drawn) [Compound 74, 3-(d3-methyl)-5-(1,4,5,6-tetrahydropyrimidin-5-yl)-1,2,4-oxadiazole hydrochloride]: on rat M1 receptors, the “agonist efficacy at M1- and M3-subtype muscarinic receptors by PI turnover” value is on record as “near full-agonist”; the “functional selectivity” value was “not selective for the M1 subtype”; the “M1/CHO PI turnover Relative Mean Smax” value was found to be 98.6. Further, the “salivary flow” value in the data set on rats is reported as “copious salivary flow”.

With `[2H]C([2H])([2H])C([2H])([2H])c1noc(C2CN=CNC2)n1` (stereo not drawn) [Compound 70, 3-(1,1,2,2,2-d5-ethyl)-5-(1,4,5,6-tetrahydropyrimidin-5-yl)-1,2,4-oxadiazole hydrochloride], at rat M1 receptors, the “functional selectivity” value was “M1-subtype functionally selective muscarinic agonists” and the “M1/CHO PI turnover Relative Mean Smax” value is listed as 67.7. The “M3/CHO PI turnover Relative Mean Smax” value at rat M3 receptors came out at 16.5. In addition, in data set [2], the “Brain Cmax (10 mg/kg po) MCD-386 = 1.00” value came to 0.61 and the “penetration into the brain” value is recorded as “penetrated into the brain”. Besides, in [3], the “Presence of metabolites (10 mg/kg po)” value was “No metabolites were identified and No”.

In the case of `[2H]C([2H])([2H])Cc1noc(C2CN=CNC2)n1` (stereo not drawn) [Compound 78, 3-(2,2,2-d3-Ethyl)-5-(1,4,5,6-tetrahydropyrimidin-5-yl)-1,2,4-oxadiazole hydrochloride], at rat M1 receptors, the “M1/CHO PI turnover Relative Mean Smax” value is 48.9. For the same compound, the “M3/CHO PI turnover Relative Mean Smax” value on rat M3 receptors came out at 28.8.
